In ChEMBL document CHEMBL4376820, “Homodimeric Tobramycin Adjuvant Repurposes Novobiocin as an Effective Antibacterial Agent against Gram-Negative Bacteria” (J Med Chem, 2019):
Activity calls are given as the source filed them. No cut-off for these calls is given here.

Assays:
[1] = tested on: Enterobacter cloacae; experiment: Potentiation of novobiocin-induced antibacterial activity against Enterobacter cloacae 117029 clinical solate assessed as novobiocin MIC at <= 7.1 uM incubated for 18 hrs by CLSI protocol based assay (reference value: 1024 ug/ml); format: functional; details: Enterobacter cloacae, 117029, 18 h
[2] = tested on: Pseudomonas aeruginosa; experiment: Synergistic antibacterial activity against wild type Pseudomonas aeruginosa PAO1 assessed as potentiation of cefotaxime-induced antibacterial effect incubated for 18 hrs by checkerboard assay relative to cefotaxime alone; format: functional
[3] = tested on: Pseudomonas aeruginosa; experiment: Antibacterial activity against carbapenem-resistant Pseudomonas aeruginosa 100036 clinical isolate incubated for 18 hrs by CLSI protocol based assay; format: functional; details: Pseudomonas aeruginosa, 100036, 18 h
[4] = tested on: Pseudomonas aeruginosa; experiment: Synergistic antibacterial activity against wild type Pseudomonas aeruginosa PAO1 assessed as potentiation of chloramphenicol-induced antibacterial effect incubated for 18 hrs by checkerboard assay relative to chloramphenicol alone; format: functional
[5] = tested on: Escherichia coli; experiment: Potentiation of novobiocin-induced antibacterial activity against colistin-resistant Escherichia coli 94393 clinical isolate harboring mcr-1 gene assessed as fold reduction in novobiocin MIC incubated for 18 hrs by CLSI protocol based assay relative to novobiocin MIC; format: functional
[6] = tested on: Klebsiella pneumoniae; experiment: Potentiation of novobiocin-induced antibacterial activity against colistin-resistant Klebsiella pneumoniae 113254 clinical isolate assessed as fold reduction in novobiocin MIC incubated for 18 hrs by CLSI protocol based assay relative to novobiocin MIC; format: functional
[7] = tested on: Pseudomonas aeruginosa; experiment: Bactericidal activity against Pseudomonas aeruginosa PAO1 assessed as log reduction in colony forming units per ml at 7.1 uM in LB media after 24 hrs in by time-kill assay; format: functional
[8] = tested on: Pseudomonas aeruginosa; experiment: Antibacterial activity against carbapenem-resistant Pseudomonas aeruginosa 101885 clinical isolate incubated for 18 hrs by CLSI protocol based assay; format: functional; details: Pseudomonas aeruginosa, 101885, 18 h
[9] = tested on: Acinetobacter baumannii; experiment: Potentiation of novobiocin-induced antibacterial activity against Acinetobacter baumannii 110193 clinical isolate assessed as novobiocin MIC at <= 7.1 uM incubated for 18 hrs by CLSI protocol based assay (reference value: 256 ug/ml); format: functional; details: Acinetobacter baumannii, 110193, 18 h
[10] = tested on: Enterobacter cloacae; experiment: Antibacterial activity against colistin-resistant Enterobacter cloacae 121187 clinical solate incubated for 18 hrs by CLSI protocol based assay; format: functional; details: Enterobacter cloacae, 121187, 18 h
[11] = tested on: Klebsiella pneumoniae; experiment: Potentiation of novobiocin-induced antibacterial activity against colistin-resistant Klebsiella pneumoniae 113250 clinical isolate assessed as novobiocin MIC at <= 7.1 uM incubated for 18 hrs by CLSI protocol based assay (reference value: 512 ug/ml); format: functional; details: Klebsiella pneumoniae, 113250, 18 h
[12] = tested on: HEK293; experiment: Cytotoxicity against human HEK293 cells at 50 uM incubated for 48 hrs by PrestoBlue dye based fluorescence assay; format: cell-based; details: hek293, 48 h
[13] = tested on: Pseudomonas aeruginosa; experiment: Synergistic antibacterial activity against wild type Pseudomonas aeruginosa PAO1 assessed as potentiation of moxifloxacin-induced antibacterial effect incubated for 18 hrs by checkerboard assay relative to moxifloxacin alone; format: functional
[14] = tested on: Klebsiella pneumoniae; experiment: Antibacterial activity against colistin-resistant Klebsiella pneumoniae 113254 clinical isolate incubated for 18 hrs by CLSI protocol based assay; format: functional; details: Klebsiella pneumoniae, 113254, 18 h
[15] = tested on: Pseudomonas aeruginosa; experiment: Potentiation of novobiocin-induced antibacterial activity against mexAB-oprM/mexCD-oprJ/mexEF-oprN/mexJK/mexXY/opmH mutant deficient Pseudomonas aeruginosa PAO750 assessed as novobiocin MIC at <= 7.1 uM incubated for 18 hrs by CLSI protocol based assay (reference value: 32 ug/ml); format: functional; details: PAO750, 18 h
[16] = tested on: Pseudomonas aeruginosa; experiment: Antibacterial activity against Pseudomonas aeruginosa 260-97103 clinical isolate incubated for 18 hrs by CLSI protocol based assay; format: functional; details: 260-97103, 18 h
[17] = tested on: Escherichia coli; experiment: Bactericidal activity against Escherichia coli ATCC […] assessed as log reduction in colony forming units per ml at 7.1 uM in LB media after 9 hrs by time-kill assay; format: functional
[18] = tested on: Klebsiella pneumoniae; experiment: Potentiation of novobiocin-induced antibacterial activity against Klebsiella pneumoniae 116381 clinical isolate assessed as novobiocin MIC at <= 7.1 uM incubated for 18 hrs by CLSI protocol based assay (reference value: 1024 ug/ml); format: functional; details: Klebsiella pneumoniae, 116381, 18 h
[19] = tested on: Acinetobacter baumannii; experiment: Bactericidal activity against Acinetobacter baumannii ATCC 17978 assessed as log reduction in colony forming units per ml at 7.1 uM in LB media after 9 hrs by time-kill assay; format: functional
[20] = tested on: Acinetobacter baumannii; experiment: Potentiation of novobiocin-induced antibacterial activity against Acinetobacter baumannii 027 clinical isolate assessed as novobiocin MIC at <= 7.1 uM incubated for 18 hrs by CLSI protocol based assay (reference value: 8 ug/ml); format: functional; details: Acinetobacter baumannii, 027, 18 h
[21] = tested on: Acinetobacter baumannii; experiment: Bactericidal activity against Acinetobacter baumannii ATCC 17978 assessed as log reduction in colony forming units per ml at 7.1 uM in LB media after 9 hrs in presence of 50.4 uM novobiocin by time-kill assay; format: functional
[22] = tested on: Enterobacter cloacae; experiment: Potentiation of novobiocin-induced antibacterial activity against colistin-resistant Enterobacter cloacae 118568 clinical solate assessed as fold reduction in novobiocin MIC incubated for 18 hrs by CLSI protocol based assay relative to novobiocin MIC; format: functional
[23] = Toxicity in Galleria mellonella larvae MDR Acinetobacter baumannii isolate assessed as larvae protection at 50 mg/kg in combination with novobiocin measured after 24 to 96 hrs relative to control; format: ADME, organism-based; details: in vivo
[24] = tested on: Klebsiella pneumoniae; experiment: Bactericidal activity against Klebsiella pneumoniae 116381 assessed as log reduction in colony forming units per ml at 7.1 in LB media after 24 hrs in presence of 50.4 uM novobiocin by time-kill assay; format: functional, organism-based
[25] = tested on: Acinetobacter baumannii; experiment: Antibacterial activity against Acinetobacter baumannii 110193 clinical isolate incubated for 18 hrs by CLSI protocol based assay; format: functional; details: Acinetobacter baumannii, 110193, 18 h
[26] = tested on: Enterobacter cloacae; experiment: Potentiation of novobiocin-induced antibacterial activity against Enterobacter cloacae 117029 clinical solate assessed as fold reduction in novobiocin MIC incubated for 18 hrs by CLSI protocol based assay relative to novobiocin MIC; format: functional
[27] = tested on: Pseudomonas aeruginosa; experiment: Synergistic antibacterial activity against wild type Pseudomonas aeruginosa PAO1 assessed as potentiation of moxifloxacin-induced antibacterial effect incubated for 18 hrs by checkerboard assay; format: functional, organism-based
[28] = tested on: Pseudomonas aeruginosa; experiment: Antibacterial activity against carbapenem-resistant Pseudomonas aeruginosa 262-101856 clinical isolate incubated for 18 hrs by CLSI protocol based assay; format: functional; details: 262-101856, 18 h
[29] = tested on: Pseudomonas aeruginosa; experiment: Potentiation of novobiocin-induced antibacterial activity against colistin and carbapenem-resistant Pseudomonas aeruginosa 101243 clinical isolate assessed as novobiocin MIC at <= 7.1 uM incubated for 18 hrs by CLSI protocol based assay (reference value: 128 ug/ml); format: functional; details: Pseudomonas aeruginosa, 101243, 18 h
[30] = tested on: Enterobacter cloacae; experiment: Antibacterial activity against colistin-resistant Enterobacter cloacae 118568 clinical solate incubated for 18 hrs by CLSI protocol based assay; format: functional; details: Enterobacter cloacae, 118568, 18 h
[31] = tested on: Pseudomonas aeruginosa; experiment: Synergistic antibacterial activity against wild type Pseudomonas aeruginosa PAO1 assessed as potentiation of levofloxacin-induced antibacterial effect incubated for 18 hrs by checkerboard assay relative to levofloxacin alone; format: functional
[32] = tested on: Pseudomonas aeruginosa; experiment: Antibacterial activity against wild type Pseudomonas aeruginosa PAO1 incubated for 18 hrs by CLSI protocol based assay; format: functional; details: PAO1, 18 h
[33] = tested on: Pseudomonas aeruginosa; experiment: Synergistic antibacterial activity against wild type Pseudomonas aeruginosa PAO1 assessed as potentiation of doxycycline-induced antibacterial effect incubated for 18 hrs by checkerboard assay relative to doxycycline alone; format: functional

For `NC[C@H]1O[C@H](O[C@H]2[C@H](OCCCCc3cn(CCCCO[C@@H]4[C@@H](O[C@H]5O[C@H](CO)[C@@H](O)[C@H](N)[C@H]5O)[C@H](N)C[C@H](N)[C@H]4O[C@H]4O[C@H](CN)[C@@H](O)C[C@H]4N)nn3)[C@@H](O[C@H]3O[C@H](CO)[C@@H](O)[C@H](N)[C@H]3O)[C@H](N)C[C@@H]2N)[C@H](N)C[C@@H]1O.O=C(O)C(F)(F)F.O=C(O)C(F)(F)F.O=C(O)C(F)(F)F.O=C(O)C(F)(F)F.O=C(O)C(F)(F)F.O=C(O)C(F)(F)F.O=C(O)C(F)(F)F.O=C(O)C(F)(F)F.O=C(O)C(F)(F)F.O=C(O)C(F)(F)F`, the MIC [1] was 8 µg/mL, the “fold change (FC)” value [2] was 4 - 128 and the MIC [3] was over 128 µg/mL. The “fold change (FC)” value [4] was 4 - 128, the Ratio [5] was 64 and the Ratio [6] was 16. For the same compound, the Activity [7] was -3.68 CFU/ml, the MIC [8] was over 128 µg/mL and the MIC [9] was 1 µg/mL. For the same compound, the MIC [10] was over 128 µg/mL, the MIC [11] was 16 µg/mL and the Activity [12] was “Non-Toxic”. For the same compound, the “fold change (FC)” value [13] was 4 - 128, the MIC [14] was over 128 µg/mL and the MIC [15] was 0.125 µg/mL. For the same compound, the MIC [16] was over 128 µg/mL, the Activity [17] was -2 CFU/ml and the MIC [18] was 8 µg/mL. It also gave an Activity [19] of -3 CFU/ml, an MIC [20] of 0.5 µg/mL and an Activity [21] of -5 CFU/ml. For the same compound, the Ratio [22] was 32, the Activity [23] was 80% and the Activity [24] was “Active”. For the same compound, the MIC [25] was over 128 µg/mL, the Ratio [26] was 128 and the Activity [27] was “Dose-dependent effect”. It also gave an MIC [28] of over 128 µg/mL, an MIC [29] of 1 µg/mL and an MIC [30] of over 128 µg/mL. The “fold change (FC)” value [31] was 4 - 128, the MIC [32] was over 128 µg/mL and the “fold change (FC)” value [33] was 4 - 128.
